Results taken from US20090203737A1, “Pyrrole Derivatives as Positive Allosteric Modulators of Metabotropic Receptors” (priority 2005, published 2009).
pEC50: −log10 of the molar value. Values joined by “and” are separate entries in the source; they are usually repeats but may differ in a detail not shown here. Equal entries are not always repeated.

Molecular target: T1, rat mGluR5 receptor (Rattus norvegicus, UniProt P31424)
T1 construct: expressed in transfected cells
Experiment: mGluR5 assay on HEK-expressing rat mGluR5 (fluorescent cell based Ca2+ mobilization assay)
Conditions: HEK-293 cells stably expressing rat mGluR5; no co-addition of glutamate; mean of at least three independent experiments in duplicate; read-out: Ca++ Flux (mean EC50)
Experimental: Positive functional expression of HEK-293 cells stably expressing rat mGluR5 receptor was determined by measuring intracellular Ca^2+ changes using a Fluorometric Imaging Plate Reader (FLIPR, Molecular Devices, Sunnyvale, Calif.) in response to glutamate or selective known mGluR5 agonists and antagonists. Rat mGluR5 RT-PCR products in HEK-293 cells were sequenced and found 100% identical to rat mGluR5 Genbank reference sequence (NM_017012). HEK-293 cells expressing rmGluR5 were maintained in media containing DMEM, dialyzed Fetal Bovine Serum (10%), Glutamax™ (2 mM), Penicillin (100 units/ml), Streptomycin (100 μg/ml), Geneticin (100 μg/ml) and Hygromycin-B (40 μg/ml) at 37° C./5% CO2.
After one day of incubation, cells were washed with assay buffer containing: 142 mM NaCl, 6 mM KCl, 1 mM […], 1 mM CaCl2, 20 mM HEPES, 1 g/L glucose, 0.125 mM sulfinpyrazone, pH 7.4. After 60 min of loading with 4 uM Fluo-4 (TefLabs, Austin, Tex.), the cells were washed three times with 50 μl of PBS Buffer and resuspended in 45 μl of assay Buffer. The plates were then transferred to a Fluorometric Imaging Plate Reader (FLIPR, Molecular Devices, Sunnyvale, Calif.) for the assessment of intracellular calcium flux. After monitoring the baseline fluorescence for 10 seconds, increasing concentrations of representative compound (from 0.01 to 60 μM) of the present invention diluted in Assay Buffer (15 μl of 4× dilutions) was added to the cell. The final DMSO concentration in the assay was 0.3%. In each experiment, fluorescence was then monitored as a function of time for 3 minutes and the data analyzed using Microsoft Excel and GraphPad Prism. Each data point was also measured two times.
Under these experimental conditions, this HEK-rat mGluR5 cell line is able to directly detect positive allosteric modulators without the need of co-addition of glutamate or mGluR5 agonist.
The concentration-response curves of representative compounds of the present invention were generated using the Prism GraphPad software (Graph Pad Inc, San Diego, USA). The curves were fitted to a four-parameter logistic equation:
(Y=Bottom+(Top−Bottom)/(1+10̂((LogEC50−X)*Hill Slope)
allowing determination of EC50 values.
The Table 1 below represents the mean EC50 obtained from at least three independent experiments of selected molecules performed in duplicate.

T1 sequence (P31424 21-1171 isoform P31424-2 limits assumed): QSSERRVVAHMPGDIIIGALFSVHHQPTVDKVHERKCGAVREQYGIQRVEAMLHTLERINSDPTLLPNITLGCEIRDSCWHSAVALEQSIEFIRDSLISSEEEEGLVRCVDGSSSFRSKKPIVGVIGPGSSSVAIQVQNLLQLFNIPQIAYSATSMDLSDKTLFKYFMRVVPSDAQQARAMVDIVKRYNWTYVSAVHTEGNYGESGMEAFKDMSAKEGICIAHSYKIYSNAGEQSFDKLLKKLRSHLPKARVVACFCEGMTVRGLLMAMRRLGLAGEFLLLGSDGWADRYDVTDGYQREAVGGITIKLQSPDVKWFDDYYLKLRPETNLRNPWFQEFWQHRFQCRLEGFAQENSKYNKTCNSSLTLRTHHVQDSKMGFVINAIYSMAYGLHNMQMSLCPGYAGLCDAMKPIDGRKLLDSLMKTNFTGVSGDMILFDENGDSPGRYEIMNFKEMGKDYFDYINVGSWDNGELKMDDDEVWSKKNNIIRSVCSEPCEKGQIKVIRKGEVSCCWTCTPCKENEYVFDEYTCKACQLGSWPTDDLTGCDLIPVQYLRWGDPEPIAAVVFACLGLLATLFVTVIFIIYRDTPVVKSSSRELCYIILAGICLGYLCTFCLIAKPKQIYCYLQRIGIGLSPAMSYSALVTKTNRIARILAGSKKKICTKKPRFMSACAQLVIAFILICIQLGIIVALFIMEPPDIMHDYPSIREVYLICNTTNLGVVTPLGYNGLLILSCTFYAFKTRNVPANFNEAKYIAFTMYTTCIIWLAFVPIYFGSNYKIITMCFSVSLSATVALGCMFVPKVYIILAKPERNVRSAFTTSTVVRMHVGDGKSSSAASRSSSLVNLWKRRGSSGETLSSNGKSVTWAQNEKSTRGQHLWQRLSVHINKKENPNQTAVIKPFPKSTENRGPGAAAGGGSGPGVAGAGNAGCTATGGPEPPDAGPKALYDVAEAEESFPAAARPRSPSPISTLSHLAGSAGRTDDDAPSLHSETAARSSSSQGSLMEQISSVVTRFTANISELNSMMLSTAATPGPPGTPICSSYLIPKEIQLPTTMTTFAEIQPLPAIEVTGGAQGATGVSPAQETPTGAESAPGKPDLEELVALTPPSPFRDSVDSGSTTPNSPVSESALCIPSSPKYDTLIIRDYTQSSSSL

| pEC50 | Compound |
| --- | --- |
| > 6.00 | O=C(c1ccc(F)cc1F)N1CCC[C@H](c2nc(-c3ccc[nH]3)no2)C1 [Example 2, (2,4-Difluoro-phenyl)-((S)-3-[3-(1H-pyrrol-2-yl)-[1,2,4]oxadiazol-5-yl]-piperidin-1-yl)-methanone] |
| > 6.00 | O=C(c1ccc(F)c(F)c1)N1CCC[C@H](c2nc(-c3ccc[nH]3)no2)C1 [Example 3, (3,4-Difluoro-phenyl)-{(S)-3-[3-(1H-pyrrol-2-yl)-[1,2,4]oxadiazol-5-yl]-piperidin-1-yl}-methanone] |
| 5.00 to 6.00 | O=C(c1ccc(F)cc1F)N1CCC[C@H](c2nc(-c3cc4ccccc4[nH]3)no2)C1 [Example 12, (2,4-Difluoro-phenyl)-{(S)-3-[3-(1H-indol-2-yl)-[1,2,4]oxadiazol-5-yl]-piperidin-1-yl}-methanone] |
| < 5.00 | O=C(c1ccc(F)cc1)N1CCCC(c2noc(-c3ccn[nH]3)n2)C1 (stereo not drawn) [Example 13, (4-Fluoro-phenyl)-{3-[5-(2H-pyrazol-3-yl)-[1,2,4]oxadiazol-3-yl]-piperidin-1-yl}-methanone] |
| < 5.00 | O=C(c1ccc(F)c(F)c1)N1CCCC(c2noc(-c3ccn[nH]3)n2)C1 (stereo not drawn) [Example 14, (3,4-Difluoro-phenyl)-{3-[5-(2H-pyrazol-3-yl)-[1,2,4]oxadiazol-3-yl]-piperidin-1-yl}-methanone] |
| 5.00 to 6.00 | O=C(c1ccc(F)cc1)N1CCC[C@H](c2nc(-c3cc4ccccc4[nH]3)no2)C1 [Example 16, (4-Fluoro-phenyl)-{(S)-3-[3-(1H-indol-2-yl)-[1,2,4]oxadiazol-5-yl]-piperidin-1-yl}-methanone] |
| 5.00 to 6.00 | O=C(c1ccc(F)cc1)N1CCCC(c2noc(-c3ncc[nH]3)n2)C1 (stereo not drawn) [Example 17, (4-Fluoro-phenyl)-{3-[5-(1H-imidazol-2-yl)-[1,2,4]oxadiazol-3-yl]-piperidin-1-yl}-methanone] |
| 5.00 to 6.00 | O=C(c1ccc(F)cc1)N1CCC[C@H](c2nc(-c3ncc[nH]3)no2)C1 [Example 24, (4-Fluoro-phenyl)-{(S)-3-[3-(1H-imidazol-2-yl)-[1,2,4]oxadiazol-5-yl]-piperidin-1-yl}-methanone] |
| > 6.00 | Cc1c[nH]c(-c2nc([C@H]3CCCN(C(=O)c4ccc(F)nc4)C3)no2)c1 [Example 28, (6-Fluoro-pyridin-3-yl)-{(S)-3-[5-(4-methyl-1H-pyrrol-2-yl)-[1,2,4]oxadiazol-3-yl]-piperidin-1-yl}-methanone] |
| > 6.00 | Cc1c[nH]c(-c2nc([C@H]3CCCN(C(=O)c4cnoc4C)C3)no2)c1 [Example 29, (5-Methyl-isoxazol-4-yl)-{(S)-3-[5-(4-methyl-1H-pyrrol-2-yl)-[1,2,4]oxadiazol-3-yl]-piperidin-1-yl}-methanone] |
| > 6.00 | Cc1c[nH]c(-c2nc([C@H]3CCCN(C(=O)c4ccnc(F)c4)C3)no2)c1 [Example 30, (2-Fluoro-pyridin-4-yl)-{(S)-3-[5-(4-methyl-1H-pyrrol-2-yl)-[1,2,4]oxadiazol-3-yl]-piperidin-1-yl}-methanone] |
| > 6.00 | Cc1c[nH]c(-c2noc([C@H]3CCCN(C(=O)c4ccc(F)nc4)C3)n2)c1 [Example 33, (6-Fluoro-pyridin-3-yl)-{(S)-3-[3-(4-methyl-1H-pyrrol-2-yl)-[1,2,4]oxadiazol-5-yl]-piperidin-1-yl}-methanone] |
| > 6.00 | Cc1c[nH]c(-c2noc([C@H]3CCCN(C(=O)c4ccnc(F)c4)C3)n2)c1 [Example 34, (2-Fluoro-pyridin-4-yl)-{(S)-3-[3-(4-methyl-1H-pyrrol-2-yl)-[1,2,4]oxadiazol-5-yl]-piperidin-1-yl}-methanone] |
| > 6.00 | Cc1c[nH]c(-c2noc([C@H]3CCCN(C(=O)c4cnoc4C)C3)n2)c1 [Example 35, (5-Methyl-isoxazol-4-yl)-{(S)-3-[3-(4-methyl-1H-pyrrol-2-yl)-[1,2,4]oxadiazol-5-yl]-piperidin-1-yl}-methanone] |
| 5.00 to 6.00 | Cc1ccc(-c2nc([C@H]3CCCN(C(=O)c4ccc(F)cc4)C3)no2)[nH]1 [Example 38, (4-Fluoro-phenyl)-{(S)-3-[5-(5-methyl-1H-pyrrol-2-yl)-[1,2,4]oxadiazol-3-yl]-piperidin-1-yl}-methanone] |
| > 6.00 | O=C(c1ccc(F)cc1)N1CCC[C@H](c2noc(-c3cc(Cl)c[nH]3)n2)C1 [Example 39, {(S)-3-[5-(4-Chloro-1H-pyrrol-2-yl)-[1,2,4]oxadiazol-3-yl]-piperidin-1-yl}-(4-fluoro-phenyl)-methanone] |
| > 6.00 | O=C(c1ccc(F)nc1)N1CCC[C@H](c2noc(-c3cc(Cl)c[nH]3)n2)C1 [Example 40, {(S)-3-[5-(4-Chloro-1H-pyrrol-2-yl)-[1,2,4]oxadiazol-3-yl]-piperidin-1-yl}-(6-fluoro-pyridin-3-yl)-methanone] |
| > 6.00 | O=C(c1ccnc(F)c1)N1CCC[C@H](c2noc(-c3cc(Cl)c[nH]3)n2)C1 [Example 41, {(S)-3-[5-(4-Chloro-1H-pyrrol-2-yl)-[1,2,4]oxadiazol-3-yl]-piperidin-1-yl}-(2-fluoro-pyridin-4-yl)-methanone] |
| > 6.00 | Cc1oncc1C(=O)N1CCC[C@H](c2noc(-c3cc(Cl)c[nH]3)n2)C1 [Example 42, {(S)-3-[5-(4-Chloro-1H-pyrrol-2-yl)-[1,2,4]oxadiazol-3-yl]-piperidin-1-yl}-(5-methyl-isoxazol-4-yl)-methanone] |
| > 6.00 | O=C(c1ccc(F)cc1)N1CCC[C@H](c2nc(-c3cc(Cl)c[nH]3)no2)C1 [Example 43, {(S)-3-[3-(4-Chloro-1H-pyrrol-2-yl)-[1,2,4]oxadiazol-5-yl]-piperidin-1-yl}-(4-fluoro-phenyl)-methanone] |
| > 6.00 and < 5.00 | O=C(c1ccc(F)nc1)N1CCC[C@H](c2noc(-c3cc(Br)c[nH]3)n2)C1 [Example 44, {(S)-3-[5-(4-Bromo-1H-pyrrol-2-yl)-[1,2,4]oxadiazol-3-yl]-piperidin-1-yl}-(6-fluoro-pyridin-3-yl)-methanone] |
| > 6.00 | O=C(c1ccc(F)cc1)N1CCC[C@H](c2nc(-c3cc(Br)c[nH]3)no2)C1 [Example 45, {(S)-3-[3-(4-Bromo-1H-pyrrol-2-yl)-[1,2,4]oxadiazol-5-yl]-piperidin-1-yl}-(4-fluoro-phenyl)-methanone] |
| > 6.00 | O=C(c1ccc(F)nc1)N1CCC[C@H](c2nc(-c3cc(Br)c[nH]3)no2)C1 [Example 46, {(S)-3-[3-(4-Bromo-1H-pyrrol-2-yl)-[1,2,4]oxadiazol-5-yl]-piperidin-1-yl}-(6-fluoro-pyridin-3-yl)-methanone] |
| 5.00 to 6.00 | CC1(C)CC(c2nc(-c3ccc[nH]3)no2)CN(C(=O)c2ccc(F)cc2)C1 (stereo not drawn) [Example 49, {3,3-Dimethyl-5-[3-(1H-pyrrol-2-yl)-[1,2,4]oxadiazol-5-yl]-piperidin-1-yl}-(4-fluoro-phenyl)-methanone] |
| > 6.00 | O=C(c1ccc(F)nc1)N1CCC[C@H](c2nc(-c3cc(F)c[nH]3)no2)C1 [Example 52, (6-Fluoro-pyridin-3-yl)-{(S)-3-[3-(4-fluoro-1H-pyrrol-2-yl)-[1,2,4]oxadiazol-5-yl]-piperidin-1-yl}-methanone] |
| > 6.00 | O=C(c1ccnc(F)c1)N1CCC[C@H](c2nc(-c3cc(F)c[nH]3)no2)C1 [Example 53, (2-Fluoro-pyridin-4-yl)-{(S)-3-[3-(4-fluoro-1H-pyrrol-2-yl)-[1,2,4]oxadiazol-5-yl]-piperidin-1-yl}-methanone] |
| > 6.00 | O=C(c1ccc(F)cc1)N1CCC[C@H](n2nnc(-c3ccc[nH]3)n2)C1 [Example 54, (4-Fluoro-phenyl)-{(S)-3-[5-(1H-pyrrol-2-yl)-tetrazol-2-yl]-piperidin-1-yl}-methanone] |
| 5.00 to 6.00 | O=C(c1ccc(F)cc1)N1CCC[C@H](c2noc(-c3nc(C(F)(F)F)c[nH]3)n2)C1 [Example 55, (4-Fluoro-phenyl)-{(S)-3-[5-(4-trifluoromethyl-1H-imidazol-2-yl)-[1,2,4]oxadiazol-3-yl]-piperidin-1-yl}-methanone] |
| 5.00 to 6.00 | O=C(c1ccc(F)cc1)N1CCC(c2nc(-c3ccc[nH]3)no2)C1 (stereo not drawn) [Example 57, (4-Fluoro-phenyl)-{3-[3-(1H-pyrrol-2-yl)-[1,2,4]oxadiazol-5-yl]-pyrrolidin-1-yl}-methanone] |
| > 6.00 | Cc1c[nH]c(-c2nc([C@H]3CCCN(C(=O)c4ccncc4F)C3)no2)c1 [Example 58, (3-Fluoro-pyridin-4-yl)-{(S)-3-[5-(4-methyl-1H-pyrrol-2-yl)-[1,2,4]oxadiazol-3-yl]-piperidin-1-yl}-methanone] |
